Experimental data as given in paper PMC7531004, “Discovery of gramicidin A analogues with altered activities by multidimensional screening of a one-bead-one-compound library” (Nature Communications, 2020).
Values joined by “and” are separate entries in the source; they are usually repeats but may differ in a detail not shown here. Identical values can stand only once. Like-named read-outs stand apart in the source and are kept apart here. Where a SMILES comes first, the peptide text is derived from it. [ ]: non-standard residue; d: D form. The star is where a group is joined. NHCH2CH2OH = OCCN*; For = O=C*

How the values were obtained:
[1] = test system: rabbit red blood cells; details: red cells of rabbit, 2 h
[2] = H+/Na+ transport assay of purified peptides; details: for Supplementary Figure 5 dose-response value (H+/Na+ transport): three replicate lines
Method: First, we evaluated the ion channel function of 1 using liposomes. To mimic a negatively charged Gram-positive bacterial membrane, the liposomes were prepared as large unilamellar vesicles (LUVs) comprising a 19:1 mixture of egg yolk phosphatidylcholine (EYPC) and egg yolk phosphatidylglycerol (EYPG)[57]. Pyranine, a pH-dependent fluorescent dye[58], was encapsulated in the LUVs and a pH gradient was applied across the membrane. H^+/Na^+ transport induced by a peptide was monitored by changes in the fluorescence intensity of pyranine.

[3] = test system: Streptococcus pneumoniae NBRC 102642; details: for Antibacterial activity MIC: NBRC 102642; for antibacterial activity/MIC: S. pneumoniae
How it was run: (§1)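 Growth inhibition was scored after 18–24 h at 37 °C in cation-adjusted Mueller Hinton broth, with laked horse blood (5%) included for streptococcal strains. Inocula were standardized by OD 625 and diluted to about 5 × 10^4 CFU/well.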

[4] = test system: Streptococcus agalactiae JCM5671; details: for Antibacterial activity MIC: JCM5671; for antibacterial activity/MIC: S. agalactiae
How it was run: as §1

[5] = test system: Streptococcus pyogenes SSI-9; details: for antibacterial activity/MIC: S. pyogenes; for Antibacterial activity MIC: SSI-9
How it was run: as §1

[6] = test system: Listeria monocytogenes 10403S; details: for antibacterial activity/MIC: L. monocytogenes
How it was run: as §1

[7] = test system: Enterococcus faecalis JCM5803; details: for antibacterial activity/MIC: E. faecalis; for Antibacterial activity MIC: JCM5803
How it was run: as §1

[8] = test system: MSSA1 (methicillin-susceptible Staphylococcus aureus); format: cell-based
[9] = read-out: EC50, H+/Na+ transport assay, 1st experiment
[10] = read-out: EC50, H+/Na+ transport assay, 2nd experiment
[11] = read-out: EC50, H+/Na+ transport assay, 3rd experiment
[12] = read-out: H+/Na+ transport activity EC50, EYPC/EYPG (19:1) LUVs
[13] = read-out: H+/Na+ transport activity/EC50, mean ± SD of three independent experiments

Row | Compound | Hemolytic activity HC10 (concentration causing 10% hemolysis) [1] [nM] | Supplementary Figure 5 dose-response value (H+/Na+ transport) ([2]; concentration 0.000512 nM) | Supplementary Figure 5 dose-response value (H+/Na+ transport) ([2]; concentration 0.00256 nM) | Supplementary Figure 5 dose-response value (H+/Na+ transport) ([2]; concentration 0.0128 nM) | Supplementary Figure 5 dose-response value (H+/Na+ transport) ([2]; concentration 0.064 nM) | Supplementary Figure 5 dose-response value (H+/Na+ transport) ([2]; concentration 0.32 nM) | Supplementary Figure 5 dose-response value (H+/Na+ transport) ([2]; concentration 1.6 nM) | Supplementary Figure 5 dose-response value (H+/Na+ transport) ([2]; concentration 8 nM) | Supplementary Figure 5 dose-response value (H+/Na+ transport) ([2]; concentration 40 nM) | Supplementary Figure 5 dose-response value (H+/Na+ transport) ([2]; concentration 200 nM) | Supplementary Figure 5 dose-response value (H+/Na+ transport) ([2]; concentration 1000 nM) | Supplementary Figure 5 dose-response value (H+/Na+ transport) ([2]; concentration 5000 nM) | EC50 [2, 9] [nM] | EC50 [2, 10] [nM] | EC50 [2, 11] [nM] | EC50 [2, 12] [nM] | EC50 [2, 13] [nM] | Antibacterial activity MIC [3] [µM] | antibacterial activity/MIC [3] [µg/mL] | Antibacterial activity MIC [4] [µM] | further results
1 | CNC(=O)C[C@@H](NC(=O)[C@@H](NC(=O)[C@@H](CC(C)C)NC(=O)[C@H](C)NC(=O)[C@@H](CC(C)C)NC(=O)[C@H](C)NC(=O)CNC(=O)[C@@H](NC=O)C(C)C)C(C)C)C(=O)N[C@@H](Cc1c[nH]c2ccccc12)C(=O)N[C@H](CC(C)C)C(=O)N[C@@H](Cc1c[nH]c2ccccc12)C(=O)N[C@H](CC(C)C)C(=O)N[C@@H](Cc1c[nH]c2ccccc12)C(=O)N[C@@H](C(=O)N[C@@H](Cc1c[nH]c2ccccc12)C(=O)NCCO)[C@H](C)O [B22] (For-VGA[dL]A[dL]V[dD](NHMe)W[dL]W[dL]W[dT]W-NHCH2CH2OH) | > 3000 | 3.488 and 0.6119 and 2.737 | 2.255 and -0.3059 and 2.73 | 4.874 and 2.041 and 3.252 | 5.2777 and 5.073 and 4.243 | 9.536 and 13.0972 and 10.1736 | 28.0205 and 30.7244 and 31.4442 | 63.0425 and 64.573 and 66.6211 | 71.1735 and 74.4694 and 76.8331 | 80.49 and 75.6285 and 73.1074 | 79.8358 and 79.3757 and 78.5441 | 88.1657 and 79.255 and 76.0319 | 2.49 | 2.93 | 1.94 | 2.5 | 2.45 ± 0.5 | 1 | 2 | > 33 | antibacterial activity/MIC [4]: > 64 µg/mL; antibacterial activity/MIC [5]: > 64 µg/mL; Antibacterial activity MIC [5]: > 33 µM; Antibacterial activity MIC ([6]; 10403S): > 33 µM; antibacterial activity/MIC [6]: > 64 µg/mL; antibacterial activity/MIC [7]: 64 µg/mL; Antibacterial activity MIC [7]: 33 µM; antibacterial activity/MIC [8]: > 64 µg/mL
2 | CC(C)C[C@@H](NC(=O)[C@H](C)NC(=O)CNC(=O)[C@@H](NC=O)C(C)C)C(=O)N[C@@H](C)C(=O)N[C@H](CC(C)C)C(=O)N[C@H](C(=O)N[C@H](CC(C)C)C(=O)N[C@@H](Cc1c[nH]c2ccccc12)C(=O)N[C@H](CC(C)C)C(=O)N[C@@H](Cc1c[nH]c2ccccc12)C(=O)N[C@@H](C(=O)N[C@@H](Cc1c[nH]c2ccccc12)C(=O)N[C@@H](C(=O)N[C@@H](Cc1c[nH]c2ccccc12)C(=O)NCCO)C(C)C)[C@H](C)O)C(C)C [B11] (For-VGA[dL]A[dL]V[dL]W[dL]W[dT]W[dV]W-NHCH2CH2OH) | 910 | 2.871 and 2.386 and 5.02 | 3.181 and 2.224 and 1.333 | 4.586 and 1.99 and 1.993 | 7.716 and 4.162 and 7.014 | 12.4442 and 13.4783 and 13.1353 | 25.1993 and 24.5125 and 22.5261 | 38.4333 and 37.5732 and 33.164 | 66.9626 and 64.2822 and 61.6393 | 70.7655 and 66.8425 and 69.2783 | 70.5972 and 73.9169 and 73.5278 | 72.3937 and 72.1348 and 73.2071 | 6.44 | 2.58 | 7.92 | 5.7 | 5.65 ± 2.76 | 0.017 | 0.031 | 8.5 | antibacterial activity/MIC [4]: 16 µg/mL; antibacterial activity/MIC [5]: 0.5 µg/mL; Antibacterial activity MIC [5]: 0.27 µM; antibacterial activity/MIC [6]: 4 µg/mL; antibacterial activity/MIC [7]: 2 µg/mL; Antibacterial activity MIC [7]: 1.1 µM; antibacterial activity/MIC [8]: 8 µg/mL
